Active and inactive are the calls of the source.
Tests used:
[1] = target: Mitochondrial peptide methionine sulfoxide reductase (Bos taurus, UniProt P54149); experiment: Absorbance-based biochemical high throughput dose response assay for activators of Methionine sulfoxide reductase A (MsrA).; assay type: functional
[2] = target: T1, Rac GTPase-activating protein 1 (Homo sapiens, UniProt Q9H0H5); experiment: blockers of MgcRacGAP-driven Rac1 GTP hydrolysis – biochemical, ADP Hunter fluorescence, primary and confirmatory, confirmation (AID 624330); assay type: functional
T1 sequence (Q9H0H5 whole entry): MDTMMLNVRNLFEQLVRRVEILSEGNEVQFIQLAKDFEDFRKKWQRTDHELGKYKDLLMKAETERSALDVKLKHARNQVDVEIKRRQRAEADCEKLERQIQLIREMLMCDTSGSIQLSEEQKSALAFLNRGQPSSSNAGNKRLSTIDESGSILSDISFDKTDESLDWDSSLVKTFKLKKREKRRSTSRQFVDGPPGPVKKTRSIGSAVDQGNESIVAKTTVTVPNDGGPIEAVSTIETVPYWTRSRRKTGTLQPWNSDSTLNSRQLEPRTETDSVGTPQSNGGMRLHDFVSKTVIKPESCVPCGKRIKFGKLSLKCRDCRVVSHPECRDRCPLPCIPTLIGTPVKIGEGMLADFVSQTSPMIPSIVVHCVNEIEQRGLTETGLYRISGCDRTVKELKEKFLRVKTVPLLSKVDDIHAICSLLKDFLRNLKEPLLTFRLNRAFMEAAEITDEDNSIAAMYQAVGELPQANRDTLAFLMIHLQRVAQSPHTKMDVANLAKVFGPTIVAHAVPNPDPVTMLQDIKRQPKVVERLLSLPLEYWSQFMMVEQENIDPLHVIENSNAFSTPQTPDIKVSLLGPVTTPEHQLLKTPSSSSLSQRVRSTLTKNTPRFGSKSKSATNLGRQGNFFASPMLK

[3] = target: T2, Tyrosyl-DNA phosphodiesterase 2 (Homo sapiens, UniProt O95551); experiment: potency against TDP2 phosphodiesterase activity – biochemical, epi absorbance, IC50, dose response (AID 743297)
T2 sequence (O95551 whole entry): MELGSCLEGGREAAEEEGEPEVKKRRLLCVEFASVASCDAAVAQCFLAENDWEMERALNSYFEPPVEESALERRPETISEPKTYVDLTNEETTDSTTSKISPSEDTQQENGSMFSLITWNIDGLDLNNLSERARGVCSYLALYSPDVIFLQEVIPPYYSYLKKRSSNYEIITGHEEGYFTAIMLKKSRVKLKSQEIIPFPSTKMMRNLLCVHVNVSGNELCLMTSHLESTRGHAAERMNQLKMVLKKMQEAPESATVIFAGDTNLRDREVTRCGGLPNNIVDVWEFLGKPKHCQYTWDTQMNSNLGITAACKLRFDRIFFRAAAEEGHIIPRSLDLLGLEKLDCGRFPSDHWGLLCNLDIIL

[4] = viability loss in HeLa cells – cytotoxicity control for MgcRacGAP inhibitor project, dose response (AID 624300); assay type: functional
[5] = target: T3, High affinity choline transporter 1 (Homo sapiens, UniProt Q9GZV3); experiment: choline transporter CHT inhibition potency – cell-based, 3H-choline uptake, radioactive, HEK293 CHT LV-AA, orthogonal assay for CHT inhibitor project, dose response (AID 651756); assay type: functional
T3 sequence (Q9GZV3 whole entry): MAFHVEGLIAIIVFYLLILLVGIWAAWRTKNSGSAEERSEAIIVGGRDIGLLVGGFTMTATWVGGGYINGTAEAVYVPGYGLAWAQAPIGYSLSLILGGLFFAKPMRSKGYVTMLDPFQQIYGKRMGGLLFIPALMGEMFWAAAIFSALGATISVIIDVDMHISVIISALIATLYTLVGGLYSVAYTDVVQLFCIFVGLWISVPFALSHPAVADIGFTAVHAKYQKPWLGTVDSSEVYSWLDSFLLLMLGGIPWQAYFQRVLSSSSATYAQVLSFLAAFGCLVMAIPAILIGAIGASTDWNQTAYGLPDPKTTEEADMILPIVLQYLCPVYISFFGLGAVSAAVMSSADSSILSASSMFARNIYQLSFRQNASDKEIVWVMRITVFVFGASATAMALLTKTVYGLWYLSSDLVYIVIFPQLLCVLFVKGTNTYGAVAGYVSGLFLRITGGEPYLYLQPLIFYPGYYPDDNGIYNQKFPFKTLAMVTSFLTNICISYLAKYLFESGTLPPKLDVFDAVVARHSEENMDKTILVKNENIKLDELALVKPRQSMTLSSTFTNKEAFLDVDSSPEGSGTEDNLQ

[6] = inhibition of ARNT PAS-B/TACC3 complex formation – biochemical, AlphaScreen, cherry-picked samples, confirmation (AID 651703); assay type: functional, Homo sapiens;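 also: His-tagged ARNT PAS-B domain paired with GST-TACC3 E629A dimer coactivator fragment; potency of inhibitors that break up the complex and lower AlphaScreen signal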
[7] = target: ADP-ribosylation factor GTPase-activating protein 1 (Rattus norvegicus, UniProt Q62848); experiment: Fluorescence polarization-based biochemical high throughput dose response screening assay to identify inhibitors of ADP-ribosylation factor GTPase activating protein 1 (ARFGAP1).; assay type: functional
Sequence of ADP-ribosylation factor GTPase-activating protein 1 (Q62848 whole entry, the tested form may be a part): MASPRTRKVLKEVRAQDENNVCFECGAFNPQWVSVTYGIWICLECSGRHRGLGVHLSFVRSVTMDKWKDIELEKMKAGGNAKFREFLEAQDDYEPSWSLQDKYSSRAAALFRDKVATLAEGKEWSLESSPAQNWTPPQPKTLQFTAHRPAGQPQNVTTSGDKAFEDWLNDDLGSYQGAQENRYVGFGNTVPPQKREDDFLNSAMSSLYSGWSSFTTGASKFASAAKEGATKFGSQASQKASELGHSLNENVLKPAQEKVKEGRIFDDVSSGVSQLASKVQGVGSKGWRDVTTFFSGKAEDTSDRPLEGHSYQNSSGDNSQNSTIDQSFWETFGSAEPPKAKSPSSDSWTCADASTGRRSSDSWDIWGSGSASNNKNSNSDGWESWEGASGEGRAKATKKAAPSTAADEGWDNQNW

[8] = target: Arf-GAP with SH3 domain, ANK repeat and PH domain-containing protein 1 (Homo sapiens, UniProt Q9ULH1); assay type: functional;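 also: biochemical fluorescence polarization dose–response screen measuring inhibition of ASAP1; ASAP1 GAP domain stimulating GTP hydrolysis by truncated human ARF1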
Sequence of Arf-GAP with SH3 domain, ANK repeat and PH domain-containing protein 1 (Q9ULH1 whole entry, the tested form may be a part): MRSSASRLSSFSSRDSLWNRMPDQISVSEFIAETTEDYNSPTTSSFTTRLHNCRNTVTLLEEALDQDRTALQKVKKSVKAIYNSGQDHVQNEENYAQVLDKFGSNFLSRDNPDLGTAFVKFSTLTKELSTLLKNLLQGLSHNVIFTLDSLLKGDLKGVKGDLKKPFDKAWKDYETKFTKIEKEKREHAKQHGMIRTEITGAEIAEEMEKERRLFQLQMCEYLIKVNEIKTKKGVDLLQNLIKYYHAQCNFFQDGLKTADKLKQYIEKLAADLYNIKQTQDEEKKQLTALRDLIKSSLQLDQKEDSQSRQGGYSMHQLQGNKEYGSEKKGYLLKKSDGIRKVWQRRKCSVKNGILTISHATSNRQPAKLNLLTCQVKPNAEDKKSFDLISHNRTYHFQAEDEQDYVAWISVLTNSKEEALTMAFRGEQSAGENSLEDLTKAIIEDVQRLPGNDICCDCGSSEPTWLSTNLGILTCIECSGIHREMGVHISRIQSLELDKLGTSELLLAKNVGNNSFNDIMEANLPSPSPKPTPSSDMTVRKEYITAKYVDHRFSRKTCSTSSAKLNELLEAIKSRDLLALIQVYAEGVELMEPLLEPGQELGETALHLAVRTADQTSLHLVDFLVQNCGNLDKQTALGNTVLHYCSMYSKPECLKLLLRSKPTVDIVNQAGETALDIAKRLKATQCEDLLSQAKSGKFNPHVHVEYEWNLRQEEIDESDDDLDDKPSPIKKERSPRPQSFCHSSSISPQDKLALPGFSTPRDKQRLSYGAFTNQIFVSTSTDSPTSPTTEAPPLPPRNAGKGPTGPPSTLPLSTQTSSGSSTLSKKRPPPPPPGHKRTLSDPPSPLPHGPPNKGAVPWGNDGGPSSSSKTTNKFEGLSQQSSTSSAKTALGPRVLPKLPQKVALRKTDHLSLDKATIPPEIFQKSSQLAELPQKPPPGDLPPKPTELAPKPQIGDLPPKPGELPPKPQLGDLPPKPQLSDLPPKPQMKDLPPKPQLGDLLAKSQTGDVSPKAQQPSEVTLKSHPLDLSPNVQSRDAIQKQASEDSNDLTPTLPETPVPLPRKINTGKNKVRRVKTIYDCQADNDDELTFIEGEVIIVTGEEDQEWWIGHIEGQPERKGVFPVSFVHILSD

[9] = target: T4, Beta-lactamase (Pseudomonas aeruginosa, UniProt Q79MP6); experiment: inhibition of IMP-1 beta-lactamase activity – biochemical, epi-absorbance, selectivity assay for VIM-2 inhibitor project, dose response (AID 1920)
T4 sequence (Q79MP6 whole entry): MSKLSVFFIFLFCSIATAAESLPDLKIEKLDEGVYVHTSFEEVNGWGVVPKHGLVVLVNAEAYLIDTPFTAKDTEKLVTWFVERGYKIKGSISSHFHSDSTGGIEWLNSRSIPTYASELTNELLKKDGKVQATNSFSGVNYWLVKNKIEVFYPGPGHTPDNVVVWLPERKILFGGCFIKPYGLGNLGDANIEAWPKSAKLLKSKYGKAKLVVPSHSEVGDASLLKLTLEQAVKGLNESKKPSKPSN

[10] = target: T5, Beta Lactamase (Pseudomonas aeruginosa, UniProt Q932Y6); experiment: VIM-2 CCF2 hydrolysis inhibition, assay artifact filter – biochemical, FRET readout, CCF2 substrate, artefact control for selective VIM-2 inhibitor project, dose response (AID 1926)
T5 sequence (Q932Y6 whole entry): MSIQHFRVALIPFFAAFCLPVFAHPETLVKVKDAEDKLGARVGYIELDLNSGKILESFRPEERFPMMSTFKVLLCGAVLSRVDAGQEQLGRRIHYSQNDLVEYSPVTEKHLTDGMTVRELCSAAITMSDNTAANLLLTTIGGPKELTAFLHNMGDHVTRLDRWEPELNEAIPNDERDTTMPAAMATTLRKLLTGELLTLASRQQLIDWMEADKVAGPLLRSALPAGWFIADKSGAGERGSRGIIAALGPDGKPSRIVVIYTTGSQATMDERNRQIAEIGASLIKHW

[11] = target: T5, Beta Lactamase; experiment: concentration-dependent VIM-2 enzyme inhibition – biochemical, epi-absorbance readout, selective inhibitors, dose response (AID 1919)
[12] = target: T4, Beta-lactamase; experiment: […] counterscreen for selective VIM-2 inhibitors: dose response biochemical high throughput screening assay to identify inhibitors of IMP-1 metallo-beta-lactamase.
[13] = target: Beta-lactamase (Salmonella choleraesuis (strain SC-B67), UniProt Q5J463); experiment: Epi-absorbance-based counterscreen for selective VIM-2 inhibitors: dose response biochemical high throughput screening assay to identify inhibitors of TEM-1 serine-beta-lactamase.
Sequence of Beta-lactamase (Salmonella choleraesuis (strain SC-B67), UniProt Q5J463) (Q5J463 whole entry): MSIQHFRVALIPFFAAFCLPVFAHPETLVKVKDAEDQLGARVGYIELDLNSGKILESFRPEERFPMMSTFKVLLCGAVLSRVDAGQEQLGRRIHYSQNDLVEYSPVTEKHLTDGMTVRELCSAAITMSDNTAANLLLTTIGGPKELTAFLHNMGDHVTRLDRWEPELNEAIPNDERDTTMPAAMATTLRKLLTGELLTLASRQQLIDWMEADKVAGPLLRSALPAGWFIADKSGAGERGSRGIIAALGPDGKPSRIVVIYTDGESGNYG

Sequence of Mitochondrial peptide methionine sulfoxide reductase (P54149 whole entry): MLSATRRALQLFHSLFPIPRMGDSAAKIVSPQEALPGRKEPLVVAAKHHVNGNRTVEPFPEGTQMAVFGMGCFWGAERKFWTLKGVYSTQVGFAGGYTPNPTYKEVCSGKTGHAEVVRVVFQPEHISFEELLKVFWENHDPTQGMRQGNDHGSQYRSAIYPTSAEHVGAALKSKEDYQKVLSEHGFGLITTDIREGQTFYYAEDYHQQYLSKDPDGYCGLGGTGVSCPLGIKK

## C[n+]1c(-c2ccccc2)cc2c(=Cc3ccccc3)c3ccccc3n21
[1]
  EC50: > 104 µM (inactive)
[2]
  IC50: 58.9 µM (active)
[3]
  IC50: > 128 µM (inactive)
[4]
  CC50: 26.3 µM (active)

## O=C(Nc1ccc(S(=O)(=O)Nc2ccccn2)cc1)c1ccc([N+](=O)[O-])cc1Cl
[5]
  IC50: 3.85 µM (active)

## C[C@H]1CN([C@@H](C)CO)C(=O)c2cc(NC(=O)Nc3cccc4ccccc34)ccc2O[C@@H]1CN(C)C(=O)Nc1ccc(C(F)(F)F)cc1
[6]
  AC50: 108 µM (active)

## CCCCOc1cccc2c(=O)n(CC(=O)Nc3ccc4c(c3)OCCO4)ccc12
[7]
  IC50: 36.8 µM (inactive)
[8]
  IC50: 18.3 µM (inactive)

## CCc1nnc(S)n1/N=C/c1ccc(NC(C)=O)cc1
[9]
  IC50: > 59.6 µM (inactive)
[10]
  IC50: 2.08 µM (active)
[11]
  IC50: 6.32 µM (active)
[12]
  IC50: > 59.6 µM (inactive)
[13]
  IC50: > 59.6 µM (inactive)

— ChEMBL document CHEMBL1201862, “PubChem BioAssay data set” (2004)
